Consider four compounds from ChEMBL document CHEMBL4680277, “Targeting Metabolism of Extracellular Nucleotides via Inhibition of Ectonucleotidases CD73 and CD39” (J Med Chem, 2020).

Bounds are passed on as bounds.

Assay [1] is described as follows: Selectivity ratio of Ki for rat NTPDase3 expressed in CHO cells to Ki for rat CD39 expressed in CHO cells.
Assay [2] concerns the target T1, Ectonucleoside triphosphate diphosphohydrolase 1 (Rattus norvegicus, UniProt P97687).
T1 sequence (P97687 whole entry): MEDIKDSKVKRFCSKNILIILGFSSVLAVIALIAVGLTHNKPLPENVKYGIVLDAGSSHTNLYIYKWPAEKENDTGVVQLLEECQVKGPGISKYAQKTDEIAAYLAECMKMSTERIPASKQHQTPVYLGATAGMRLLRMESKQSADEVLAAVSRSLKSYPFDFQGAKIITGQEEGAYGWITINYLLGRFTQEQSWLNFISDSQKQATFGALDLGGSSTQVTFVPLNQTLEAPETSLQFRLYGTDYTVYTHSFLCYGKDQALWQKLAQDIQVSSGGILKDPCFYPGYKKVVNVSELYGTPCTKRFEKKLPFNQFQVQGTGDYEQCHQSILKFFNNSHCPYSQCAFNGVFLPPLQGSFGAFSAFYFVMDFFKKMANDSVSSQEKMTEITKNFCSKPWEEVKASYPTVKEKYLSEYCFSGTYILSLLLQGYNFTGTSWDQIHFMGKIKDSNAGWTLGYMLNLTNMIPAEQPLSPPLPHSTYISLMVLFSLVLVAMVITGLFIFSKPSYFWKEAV
Kind of assay: Inhibition of rat CD39 expressed in CHO cells using ATP as substrate incubated for 10 mins by UV absorbance method. It is filed as cell-based. To be noted: cho.

In assay [3] the target is T2, Ectonucleoside triphosphate diphosphohydrolase 2 (Rattus norvegicus, UniProt O35795).
T2 sequence (O35795 whole entry): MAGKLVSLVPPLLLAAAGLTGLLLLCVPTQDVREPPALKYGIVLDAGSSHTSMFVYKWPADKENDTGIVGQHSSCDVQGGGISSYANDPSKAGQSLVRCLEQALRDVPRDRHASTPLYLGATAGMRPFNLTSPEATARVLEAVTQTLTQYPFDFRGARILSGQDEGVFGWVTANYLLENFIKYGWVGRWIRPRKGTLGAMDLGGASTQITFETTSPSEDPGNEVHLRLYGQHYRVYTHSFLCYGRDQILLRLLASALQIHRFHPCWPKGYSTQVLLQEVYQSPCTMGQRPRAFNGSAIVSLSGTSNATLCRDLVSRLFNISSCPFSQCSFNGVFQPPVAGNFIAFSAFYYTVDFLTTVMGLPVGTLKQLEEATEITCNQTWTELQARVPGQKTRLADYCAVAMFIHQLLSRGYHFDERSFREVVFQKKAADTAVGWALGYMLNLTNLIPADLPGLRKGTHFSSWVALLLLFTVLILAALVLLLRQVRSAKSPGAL
Kind of assay: Inhibition of rat NTPDase2 expressed in CHO cells using ATP as substrate incubated for 10 mins by UV absorbance method. Type of assay: cell-based. To be noted: cho.

Assay [4] in a line: Selectivity ratio of Ki for rat NTPDase2 expressed in CHO cells to Ki for rat CD39 expressed in CHO cells.
The nature of assay [5]: Inhibition of rat NTPDase3 expressed in CHO cells using ATP as substrate incubated for 10 mins by UV absorbance method. It is filed as cell-based.
In assay [6] the target is T3, Ectonucleoside triphosphate diphosphohydrolase 3 (Homo sapiens, UniProt O75355).
T3 sequence (O75355 whole entry): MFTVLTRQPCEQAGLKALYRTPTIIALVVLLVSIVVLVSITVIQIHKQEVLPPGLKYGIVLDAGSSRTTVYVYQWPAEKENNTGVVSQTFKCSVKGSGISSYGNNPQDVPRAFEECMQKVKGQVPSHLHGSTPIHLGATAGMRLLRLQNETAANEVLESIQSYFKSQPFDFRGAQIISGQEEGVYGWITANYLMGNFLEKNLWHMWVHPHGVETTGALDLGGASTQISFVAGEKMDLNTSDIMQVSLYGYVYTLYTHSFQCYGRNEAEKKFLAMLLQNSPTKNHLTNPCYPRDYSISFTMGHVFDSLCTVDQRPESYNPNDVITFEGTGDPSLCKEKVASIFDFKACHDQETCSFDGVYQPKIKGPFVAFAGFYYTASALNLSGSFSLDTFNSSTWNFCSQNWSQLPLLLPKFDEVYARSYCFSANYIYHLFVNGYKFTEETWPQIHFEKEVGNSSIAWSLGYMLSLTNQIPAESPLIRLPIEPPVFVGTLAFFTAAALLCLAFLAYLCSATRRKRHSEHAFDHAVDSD
In words: Competitive inhibition of human NTPDase3 using ATP as substrate preincubated for 3 mins followed by substrate addition and measured after 15 mins by Dixon and Cornish-Bowden plot analysis.

For assay [7], the target named is T4, Ectonucleoside triphosphate diphosphohydrolase 1 (Mus musculus, UniProt P55772).
T4 sequence (P55772 whole entry): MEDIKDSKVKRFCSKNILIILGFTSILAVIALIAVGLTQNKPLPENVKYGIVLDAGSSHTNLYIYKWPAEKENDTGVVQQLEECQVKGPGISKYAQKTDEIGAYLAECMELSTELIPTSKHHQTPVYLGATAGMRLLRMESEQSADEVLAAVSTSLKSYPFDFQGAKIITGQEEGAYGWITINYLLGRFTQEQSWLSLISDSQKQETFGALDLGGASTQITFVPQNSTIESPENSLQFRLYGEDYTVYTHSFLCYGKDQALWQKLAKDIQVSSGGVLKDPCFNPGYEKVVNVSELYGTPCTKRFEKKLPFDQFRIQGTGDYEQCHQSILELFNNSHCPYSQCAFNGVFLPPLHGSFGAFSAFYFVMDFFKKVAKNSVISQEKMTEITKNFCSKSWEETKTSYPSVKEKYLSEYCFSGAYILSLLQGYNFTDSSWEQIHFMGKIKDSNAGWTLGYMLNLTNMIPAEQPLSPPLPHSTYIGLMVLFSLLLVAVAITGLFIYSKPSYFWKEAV
Kind of assay: Inhibition of mouse CD39 expressed in green monkey Cos-7 cells using ATP as substrate preincubated for 3 mins followed by substrate addition by malachite green reagent based assay. Type of assay: cell-based.

The target in assay [8] is T5, Ectonucleoside triphosphate diphosphohydrolase 8 (Homo sapiens, UniProt Q5MY95).
T5 sequence (Q5MY95 whole entry): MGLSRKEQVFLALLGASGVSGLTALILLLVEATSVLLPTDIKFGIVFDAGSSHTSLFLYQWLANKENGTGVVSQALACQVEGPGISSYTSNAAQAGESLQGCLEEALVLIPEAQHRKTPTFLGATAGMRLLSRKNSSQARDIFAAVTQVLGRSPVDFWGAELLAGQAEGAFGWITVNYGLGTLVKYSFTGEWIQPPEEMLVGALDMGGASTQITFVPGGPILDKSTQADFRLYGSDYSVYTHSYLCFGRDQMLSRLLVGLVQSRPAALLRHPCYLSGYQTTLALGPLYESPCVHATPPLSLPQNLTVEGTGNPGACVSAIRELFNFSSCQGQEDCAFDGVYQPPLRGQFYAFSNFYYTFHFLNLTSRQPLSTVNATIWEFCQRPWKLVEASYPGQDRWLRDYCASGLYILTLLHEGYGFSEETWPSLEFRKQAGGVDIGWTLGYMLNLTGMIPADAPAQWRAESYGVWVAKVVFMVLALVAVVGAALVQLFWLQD
In words: Inhibition of human NTPDase8 expressed in green monkey Cos-7 cells using ATP as substrate preincubated for 3 mins followed by substrate addition by malachite green reagent based assay. Type of assay: cell-based.

The target in assay [9] is T6, Ectonucleoside triphosphate diphosphohydrolase 1 (Homo sapiens, UniProt P49961).
T6 sequence (P49961 whole entry): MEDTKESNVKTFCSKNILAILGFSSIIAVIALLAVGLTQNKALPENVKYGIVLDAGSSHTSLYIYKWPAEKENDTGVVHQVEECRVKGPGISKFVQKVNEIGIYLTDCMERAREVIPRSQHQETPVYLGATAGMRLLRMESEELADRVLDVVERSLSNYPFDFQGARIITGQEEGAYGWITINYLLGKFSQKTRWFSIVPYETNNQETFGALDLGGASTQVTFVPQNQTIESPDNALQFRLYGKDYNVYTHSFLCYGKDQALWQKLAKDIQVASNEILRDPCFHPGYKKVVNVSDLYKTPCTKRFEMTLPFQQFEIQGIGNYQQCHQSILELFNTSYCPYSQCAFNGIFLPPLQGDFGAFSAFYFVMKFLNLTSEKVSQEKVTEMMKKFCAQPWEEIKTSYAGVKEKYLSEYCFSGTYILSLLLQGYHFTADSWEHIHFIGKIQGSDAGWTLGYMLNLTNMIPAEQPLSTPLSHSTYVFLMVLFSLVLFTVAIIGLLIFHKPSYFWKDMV
In words: Inhibition of human CD39 using ATP as substrate preincubated for 3 mins followed by substrate addition and measured after 10 to 15 mins by Cheng-Prusoff analysis. The note with it: read-out: Ki(app).

Assay [10] deals with T6, Ectonucleoside triphosphate diphosphohydrolase 1. In words: Inhibition of human CD39 using ATP as substrate preincubated for 3 mins followed by substrate addition and measured after 10 to 15 mins by Malachite green reagent based assay.

Consider `Nc1c(S(=O)(=O)[O-])cc(Nc2ccc3ccccc3c2)c2c1C(=O)c1ccccc1C2=O.[Na+]`, for which the “Ratio Ki” value turned out to be 7 in assay [1] and 58 in assay [4]. The Ki is 0.328 µM in assay [2], 19.1 µM in [3] and 2.22 µM in assay [5].

Take `CCN(CC)c1ncnc2c1ncn2[C@@H]1O[C@H](COP(=O)(O)OP(=O)(O)C(Br)(Br)P(=O)(O)O)[C@@H](O)[C@H]1O`: the Ki in assay [6] is 18 µM.

For the compound `Cc1ccc(C(=O)Nc2ccc(S(=O)(=O)O)c3cc(S(=O)(=O)O)cc(S(=O)(=O)O)c23)cc1NC(=O)c1cccc(NC(=O)Nc2cccc(C(=O)Nc3cc(C(=O)Nc4ccc(S(=O)(=O)O)c5cc(S(=O)(=O)O)cc(S(=O)(=O)O)c45)ccc3C)c2)c1` [SURAMIN], the IC50 in assay [7] and in assay [8] was above 100 µM each time.

`CCCCSc1nc2c(N)ncnc2n1[C@@H]1O[C@H](COP(=O)(O)OP(=O)(O)OP(=O)(O)O)[C@@H](O)[C@H]1O`: the Ki in assay [9] is 0.8 µM. Half-maximal inhibition in [10] (IC50) was put at 5.6 µM.
